Measured values taken from patent publication US7977375B2, “Antibiotic and method of production thereof” (Helmholtz-Zentrum Für Infektionsforschung GmbH, priority 2004, dated 2011).

Legend:
E. faecium VRAR E315 = test: agar diffusion method, inhibition zone; type: cell-based, Enterococcus faecium; details: Enterococcus faecium, VRARE315; E. faecium VRAR E315; MH agar, 18 hours at 37° C.; per disk 10 μl crude extract, 50 μg macrolactin, 78 μg erythromycin, 30 μg vancomycin, 10 μg ampicillin
Method: (§1) The agar diffusion method employing Mueller-Hinton (MH) agar (Difco Laboratories) was used to determine effectiveness against bacteria and yeasts. Sterile paper disks (Schleicher & Schüell, Germany) were seeded with 10 μl crude extract or with a solution of purified macrolactin (final compound concentration on the disk 50 μg) and then placed on the surface of MH-agar plates that had been seeded beforehand with a suspension of overnight culture of the test microorganisms at a concentration of 10^5 cells/ml.

B. cepacia SCV 141 = test: agar diffusion method, inhibition zone; type: cell-based, Burkholderia cepacia; details: 18 hours at 37° C., per disk 10 μl crude extract, 50 μg macrolactin, 78 μg erythromycin, 10 μg ampicillin
Method: as §1
The B. cepacia strain used, which is a clinical isolate from a cystic fibrosis patient, forms small colonies (SCV 141).

[1] = tested on: Candida albicans DSM 11225; test: MIC / MBC in liquid culture; type: cell-based; details: DSM11225, read-out: MIC (minimal inhibitory concentration)
[2] = tested on: bacteria, especially gram-positive bacteria; test: bacteriostatic activity, general statement; type: cell-based; details: very low concentrations
Method: 7-O-malonyl macrolactin A is antibiotically active against bacteria, especially gram-positive bacteria and is, in particular, advantageously bacteriostatic at very low concentrations, for example, in the region of 0.05-4 μg/ml. […] The bacteriostatic activity of 7-O-malonyl macrolactin A has already been observed at weak concentrations, as compared to the prior art macrolactin A, even where there has been no direct or immediate bactericidal effect at such low concentrations.

Q: How did the zone of inhibition at 50 µg/disc (E. faecium VRAR E315) turn out when `CC1CCC/C=C/C=C/C(O)CC(O)C/C=C\C=C\C(OC(=O)CC(=O)O)C/C=C/C=C\C(=O)O1` (centres unmarked) [7-O-malonyl macrolactin A] was run?
A: 15 mm

Q: And the zone of inhibition at 50 µg/disc (B. cepacia SCV 141; Burkholderia cepacia, SCV141, MH agar)?
A: 15 mm

Q: And the Inhibition zone (B. cepacia SCV 141; MH agar)?
A: produced an inhibition zone

Q: What about the MIC [1] of the same molecule?
A: > 128 µg/mL

Q: And the bacteriostatic concentration [2]?
A: 0.05 to 4 µg/mL
